Experimental data as given in patent US10946024B2, “Method for treating cancer” (Epizyme, Inc., priority 2014, dated 2021).

Columns and labels:
[1] = test system: H3K27me3 in HS-SY-II xenograft; experiment: H3K27me3 by ELISA in HS-SY-II xenograft tumors harvested on Day 28 (second study); assay type: in vivo, mice; conditions: Day 28, 3 h after the last dose
Protocol: FIGS. 10A to 10C show mean in vivo tumor volumes for athymic nude mice bearing HS-SY-II xenografts. In a first study, mice were dosed with either vehicle (oral for 28 days or iv on Day 1 and Day 22), Compound A (oral: 125 mg/kg, 250 mg/kg, or 500 mg/kg for 28 days), or Doxorubicin (iv: 10 mg/kg, Day 1 and Day 22); tumor volumes were measured twice a week (FIGS. 10A and 10B). In a second study, mice were dosed with either vehicle (oral for 28 days), Compound A (oral: 250 mg/kg or 500 mg/kg for 28 days), Doxorubicin (iv: 10 mg/kg on Day 1 and Day 22), or a combination of Doxorubicin (iv: 10 mg/kg on Day 1 and Day 22) and Compound A (oral: 250 mg/kg for 28 days) (FIG. 10C). Tumors from animals of the second study were harvested on Day 28 (3 h after the last dose) and subjected to H3K27me3 analysis by ELISA (FIG. 10D) or IHC for the proliferation marker Ki67 (FIG. 10E).
For FIG. 10D, tumors were snap-frozen in liquid nitrogen. […] Histones were quantified using the BCA protein assay (23225, Pierce). […] Subsequently, the developed colors in the wells were measured using a plate spectrophotometer (SpectraMax 250, Molecular Devices) at 450 nm (reference wavelength 650 nm). The H3K27me3 levels were adjusted to total histone H3, and expressed as fold changes to vehicle control. […] Histones were extracted and quantified, and the levels of H3K27me3 were analyzed as described above. […]

[2] = test system: ATF3, EGR1, CDKN2A expression in HS-SY-II cells; experiment: Gene expression changes in vitro by RT-PCR, normalized to GAPDH; assay type: cell-based, human; parameters: key to ATF3 expression change, significance 0 uM vs. / EGR1 expression change, significance 0 uM vs. / CDKN2A expression change, significance 0 uM vs.: *: Asterisks mean significant changes compared to levels of 0 μM-treated groups.; **: Asterisks mean significant changes compared to levels of 0 μM-treated groups.; ***: Asterisks mean significant changes compared to levels of 0 μM-treated groups.; ****: Asterisks mean significant changes compared to levels of 0 μM-treated groups
Protocol: HS-SY-II and SW982 cells were treated with EZH2 inhibitors (Compound A or EPZ-011989) and collected at the indicated time points. Total RNA isolation and cDNA synthesis were performed using the TaqMan Gene Expression Cells-to-CT kit (4399002, Life technologies) according to the manufacturer's protocol. ATF3, EGR1, CDKN2A and GAPDH expression were analyzed by using the TaqMan Gene Expression Assays (Life technologies, 4331182) and the TaqMan Probes (Hs00231069_m1, Hs00152928_m1, Hs00233365_m1, and Hs99999905_m1, respectively).

## CCN(c1cc(-c2ccc(CN3CCOCC3)cc2)cc(C(=O)NCc2c(C)cc(C)[nH]c2=O)c1C)C1CCOCC1 [Compound A]
[1]
  H3K27me3 levels in tumors: significantly reduced
[2]; HS-SY-II in vitro culture
  ATF3 and EGR1 expression: upregulated
  CDKN2A expression: Dose- and time-dependent CDKN2A upregulation
[2]; HS-SY-II, 1 uM, day 2
  CDKN2A expression change, significance 0 uM vs.: **
[2]; HS-SY-II, 1 uM, day 4
  ATF3 expression change, significance 0 uM vs.: *
  CDKN2A expression change, significance 0 uM vs.: ****
[2]; HS-SY-II, 1 uM, day 7
  ATF3 expression change, significance 0 uM vs.: **
  CDKN2A expression change, significance 0 uM vs.: ****
  EGR1 expression change, significance 0 uM vs.: **
